US20090142364A1, “Method for finding novel peptide immunostimulatory adjuvants, compositions and methods of use” (priority 2007, published 2009)
Where a SMILES comes first, the peptide text is derived from it.

How the values were obtained:
[1] = test system: antibody response to N. meningitidis serogroup C capsular polysaccharide; assay: Antibody response to N. meningitidis serogroup C capsular polysaccharide, passive agglutination test; format: in vivo, CBA mice; conditions: 0.2 μg capsular polysaccharide i.v.
Protocol: Immunization with capsular polysaccharide of N. meningitidis serogroup C was carried out in CBA mice. Groups of 5 mice were administered i.v. with polysaccharide C (0.2 μg) in saline in the presence of 1-100 μg of RN-peptide. Control mice were immunized with optimal dose (2 μg/mouse) of polysaccharide. Four days later mice were bled from tail vein and the antibody titer was evaluated by passive agglutination test using commercial erythrocyte diagnostic kit.

E6/1.2 mAb = assay: Solid-phase ELISA of TentaGel-bound synthesized peptide with E6/1.2 mAb; format: binding, mouse
Protocol: Different biological activities are characteristic of GMDP, including adjuvant activity, induction of non-specific resistance to infections, and the ability to induce Ia-antigen expression on murine macrophages (Khaidukov S. V. 1995). In order to evaluate the biological properties, we produced RN-peptide by solid-phase synthesis by Fmoc strategy. Two types of polymers were used, namely standard Wang's resin and TentaGel (Rapp Polymere, Germany). The synthesis carried out on Wang's resin yielded, after removal of protective groups, the free peptide which was used in biological studies after standard chromatographic purification. When hydrophilic TentaGel was used as solid support, the peptide remained bound to polymer after removal of protective groups enabling evaluation of its binding to E6/1.2 mAb by solid-phase ELISA.
Peptide synthesis. All peptides were synthesized manually by the Fmoc/t-Bu technique. Wang Resin (Bachem, Switzerland) was loaded with Fmoc-Asn(Trt)-OH via diisopropylcarbodiimide-4-dimethylaminopyridine (DIC-DMAP) procedure (Heinzelmann et al. 2000). […] Coupling efficiency during polypeptide chain assembly was routinely monitored by Kaiser ninhydrine test and in case of incomplete reactions extra couplings were carried out. […]

[2] = test system: Balb/c mice peritoneal mononuclear cells (PMC); assay: Ia-antigen-inducing effect, flow cytometry, peritoneal mononuclear cells; format: cell-based, mouse; conditions: at optimal dose, overnight treatment
Protocol: (§1) We studied the Ia-antigen-inducing activity of RN-peptide by stimulation in vitro of murine peritoneal macrophages. Flow cytometry was used to assess Ia-antigen expression. […] The pyrogenicity of the peptide was studied in Wistar rats. […] The dynamics of alteration of rectal temperature were monitored during 2.5 h.
Balb/c mice peritoneal mononuclear cells (PMC) were isolated by Histopaque density gradient centrifugation. PMC or WEHI-3 cells were incubated with RN-peptide (0.1-10 μg/ml) or GMDP (positive control) or saline (negative control) in RPMI 1640 medium, supplemented with 5% fetal calf serum upon rotary mixing for 18 h at 37° C. Cells were stained on ice bath with MKD6 anti-Ia^d mAb (supernatant from the in vitro culture, 1:10 dilution) and FITC-labeled anti-mouse immunoglobulin (Sigma, USA, 1:300 dilution), and then with phycoerythrin-labeled F4/80 mAb (Caltag, USA, 0.2 μg/100 μl). Ia antigen expression was assessed by flow cytometry using EPICS “Elite” (Coulter, USA).

[3] = test system: antibody response to ovalbumin; assay: Adjuvant activity: antibody response to ovalbumin in mice, titer by solid-phase ELISA; format: in vivo, Balb/c mice; conditions: for Adjuvant index / Anti-ovalbumin antibody titer: i.p.
Protocol: To study the adjuvant activity of RN-peptide, Balb/c mice were immunized with ovalbumin in saline in the presence of the RN-peptide, its analogs or GMDP, or without any adjuvant (control). The adjuvant was introduced on first immunization, whereas second immunization was carried out with half dose of OVA without adjuvant.
Adjuvant activity. Groups of 5 Balb/c mice were administered i.p. with 2.5-10 μg ovalbumin (Sigma, USA) per mouse in 200 μl PBS. RN-peptide (0.1-100 μg) or GMDP (1-100 μg) was introduced simultaneously with ovalbumin on first immunization. The second immunization was carried out 28 days later with half dose of ovalbumin (1.25-5.0 μg/200 μl) without adjuvant. Control mice received ovalbumin twice without adjuvant. Three days after the second immunization mice were bled from the tail vein. […] Control mice received polysaccharide without any adjuvant. Five and ten days after immunization mice were bled.
The antibody titer was evaluated by solid-phase ELISA as described by Douillard and Hoffman (1983) Enzyme-linked immunosorbent assay for screening monoclonal antibody production using enzyme-labeled second antibody. The antigen (ovalbumin or polysaccharide), 5 μg/ml in bicarbonate buffer, pH 8.6 (100 μl), was introduced into wells of 96-well microtiter plate. Incubation was carried out overnight at 4° C. The plate was washed 5 times with PBS and 5 times with PBS/0.1% Tween-20 (PBS-T). Remaining binding sites were blocked with 1% gelatin in PBS (2 h, room temperature). After washing 100 μl of mouse serum (1:100 dilution) was added, and serial three-fold dilutions were made. Bound antibodies were visualized by incubation with Horse-Radish-Peroxidase (HRP)-conjugated rabbit anti-mouse antibodies and OPD as the chromogenic substrate.

[4] = rat, in vivo, ip
Protocol: as §1
The pyrogenic effect SPF female Wistar rats were injected i.p. with a peptide (1.01 mg/kg; 5.74×10^−7 mole/kg) in PBS or with equal dose of GMDP (0.4 mg/kg; 5.74×10^−7 mole/kg). Rectal temperature was recorded every 5 minutes for 160 minutes using PowerLabe/4sp system with an electronic thermometer (MLT1403 Rectal Probe for Rats, AD Instruments USA). All data were quantified (mean±SEM) and compared by the variance analysis.

[5] = adjuvant 0.1 μg, ovalbumin 2.5 μg then 1.25 μg
[6] = adjuvant 1 μg, ovalbumin 2.5 μg then 1.25 μg
[7] = adjuvant 1 μg, ovalbumin 10 μg then 5 μg
[8] = adjuvant 10 μg, ovalbumin 2.5 μg then 1.25 μg
[9] = adjuvant 10 μg, ovalbumin 10 μg then 5 μg
[10] = adjuvant 100 μg, ovalbumin 2.5 μg then 1.25 μg
[11] = adjuvant 100 μg, ovalbumin 10 μg then 5 μg

Structure (SMILES): CC[C@H](C)[C@H](NC(=O)[C@H](CCCCN)NC(=O)[C@H](C)NC(=O)[C@H](Cc1c[nH]cn1)NC(=O)[C@H](Cc1ccc(O)cc1)NC(=O)[C@H](CCCNC(=N)N)NC(=O)[C@@H]1CCCN1C(=O)[C@@H]1CCCN1C(=O)[C@@H](NC(=O)[C@@H](N)CCCNC(=N)N)C(C)C)C(=O)N[C@@H](CO)C(=O)N1CCC[C@H]1C(=O)N[C@@H](CCSC)C(=O)N[C@H](C(=O)N[C@@H](CC(N)=O)C(=O)O)C(C)C [RN-peptide, RVPPRYHAKISPMVN] (H-RVPPRYHAKISPMVN-OH)
- anti-polysaccharide antibody titer (in words) [1]: increased considerably
- binding to GMDP-specific mAb (E6/1.2 mAb): retained the ability
- increase in Ia-positive cell number [2]: 10%
- adjuvant dose of highest response ([3]; 2.5 μg OVA): 10 µg
- anti-ovalbumin antibody titer (in words) ([3]; 100 μg/mouse): diminished
- Adjuvant index [3, 5]: 0.92 ± 0.04
- Anti-ovalbumin antibody titer [3, 5]: 2250 ± 100
- Adjuvant index [3, 6]: 1.75 ± 0.06
- Anti-ovalbumin antibody titer [3, 6]: 4300 ± 150
- Adjuvant index [3, 7]: 7.3 ± 0.08
- Anti-ovalbumin antibody titer [3, 7]: 43500 ± 400
- Adjuvant index [3, 8]: 7.55 ± 0.06
- Anti-ovalbumin antibody titer [3, 8]: 19000 ± 200
- Adjuvant index [3, 9]: 2.6 ± 0.05
- Anti-ovalbumin antibody titer [3, 9]: 15700 ± 280
- Adjuvant index [3, 10]: 0.8 ± 0.008
- Anti-ovalbumin antibody titer [3, 10]: 2000 ± 20
- Adjuvant index [3, 11]: 0.9 ± 0.03
- Anti-ovalbumin antibody titer [3, 11]: 5400 ± 200
- adjuvant dose at which antibody titer peaked ([3]; first immunization with 5-10 μg of OVA): 1 μg/mouse
- adjuvant activity (in words) ([3]; ovalbumin in mice): strongly enhanced antibody response
- anti-ovalbumin antibody titer relative to the titer of control serum ([3]; under optimal conditions): 6.5-7.5 times
- increase in body temperature [4]: did not produce this effect
